In the NIST ThermoML archive (doi:10.1016/j.jct.2014.01.012):

Assay: xn = mol fraction of the nth substance listed
Conditions: 101 kPa, Liquid; for speed of sound: Sing-around technique in a fixed-path interferometer; for mass density: Vibrating tube method

CCCCCCn1cc[n+](C)c1.F[P-](F)(F)(F)(F)F [1-hexyl-3-methylimidazolium hexafluorophosphate] + CCCCOC(C)=O
Conditions | mass density [kg/m3] | speed of sound [m/s]
293.15 K, x1 = 0.0956 | 951.75 | 1232
293.15 K, x1 = 0.1919 | 1012.58 | 1254.6
293.15 K, x1 = 0.273 | 1056.82 | 1279.1
293.15 K, x1 = 0.3698 | 1103.12 | 1306.9
293.15 K, x1 = 0.4639 | 1141.87 | 1329.4
293.15 K, x1 = 0.5701 | 1179.57 | 1354.2
293.15 K, x1 = 0.6787 | 1213.07 | 1375.9
293.15 K, x1 = 0.7746 | 1239.19 | 1395
293.15 K, x1 = 0.8707 | 1262.73 | 1412
293.15 K, x1 = 0.9354 | 1277.66 | 1425
293.15 K, x1 = 1 | 1291.38 | 1436.9
298.15 K, x1 = 0.0956 | 947.32 | 1211.1
298.15 K, x1 = 0.1919 | 1008.36 | 1234
298.15 K, x1 = 0.273 | 1052.6 | 1258.9
298.15 K, x1 = 0.3698 | 1098.76 | 1286.7
298.15 K, x1 = 0.4639 | 1137.51 | 1309.5
298.15 K, x1 = 0.5701 | 1175.41 | 1334.8
298.15 K, x1 = 0.6787 | 1209.24 | 1357.2
298.15 K, x1 = 0.7746 | 1235.56 | 1377.6
298.15 K, x1 = 0.8707 | 1259.27 | 1395.9
298.15 K, x1 = 0.9354 | 1273.93 | 1409.2
298.15 K, x1 = 1 | 1287.34 | 1423.5
303.15 K, x1 = 0.0956 | 942.923 | 1190.1
303.15 K, x1 = 0.1919 | 1004.08 | 1212.6
303.15 K, x1 = 0.273 | 1048.36 | 1237.4
303.15 K, x1 = 0.3698 | 1094.3 | 1265.2
303.15 K, x1 = 0.4639 | 1133.2 | 1289.9
303.15 K, x1 = 0.5701 | 1171.25 | 1317.5
303.15 K, x1 = 0.6787 | 1205.24 | 1342.6
303.15 K, x1 = 0.7746 | 1231.69 | 1360.1
303.15 K, x1 = 0.8707 | 1255.4 | 1382.6
303.15 K, x1 = 0.9354 | 1270.13 | 1397.1
303.15 K, x1 = 1 | 1283.29 | 1410.6
308.15 K, x1 = 0.0956 | 938.4 | 1170.2
308.15 K, x1 = 0.1919 | 999.626 | 1195.2
308.15 K, x1 = 0.273 | 1043.86 | 1223.8
308.15 K, x1 = 0.3698 | 1089.96 | 1252.4
308.15 K, x1 = 0.4639 | 1128.94 | 1282.6
308.15 K, x1 = 0.5701 | 1167.43 | 1309.4
308.15 K, x1 = 0.6787 | 1201.36 | 1335.2
308.15 K, x1 = 0.7746 | 1227.89 | 1354.9
308.15 K, x1 = 0.8707 | 1251.38 | 1369.7
308.15 K, x1 = 0.9354 | 1265.98 | 1384.4
308.15 K, x1 = 1 | 1279.4 | 1398.2
313.15 K, x1 = 0.0956 | 933.877 | 1150.1
313.15 K, x1 = 0.1919 | 995.525 | 1177
313.15 K, x1 = 0.273 | 1039.84 | 1206.8
313.15 K, x1 = 0.3698 | 1085.95 | 1236.5
313.15 K, x1 = 0.4639 | 1124.72 | 1267.5
313.15 K, x1 = 0.5701 | 1163.39 | 1295.4
313.15 K, x1 = 0.6787 | 1197.76 | 1321.8
313.15 K, x1 = 0.7746 | 1224.59 | 1341.9
313.15 K, x1 = 0.8707 | 1248.25 | 1356.9
313.15 K, x1 = 0.9354 | 1262.68 | 1372
313.15 K, x1 = 1 | 1275.48 | 1386
318.15 K, x1 = 0.0956 | 929.385 | 1130.3
318.15 K, x1 = 0.1919 | 991.164 | 1158.8
318.15 K, x1 = 0.273 | 1035.44 | 1189.8
318.15 K, x1 = 0.3698 | 1081.67 | 1220.7
318.15 K, x1 = 0.4639 | 1120.61 | 1252.5
318.15 K, x1 = 0.5701 | 1159.18 | 1280.7
318.15 K, x1 = 0.6787 | 1193.95 | 1308.5
318.15 K, x1 = 0.7746 | 1221 | 1329
318.15 K, x1 = 0.8707 | 1244.79 | 1344.4
318.15 K, x1 = 0.9354 | 1258.89 | 1359.8
318.15 K, x1 = 1 | 1271.56 | 1374.2
323.15 K, x1 = 0.0956 | 924.824 | 1110.4
323.15 K, x1 = 0.1919 | 986.823 | 1140.8
323.15 K, x1 = 0.273 | 1031.16 | 1172.9
323.15 K, x1 = 0.3698 | 1077.6 | 1205.1
323.15 K, x1 = 0.4639 | 1116.43 | 1237.1
323.15 K, x1 = 0.5701 | 1155.28 | 1267
323.15 K, x1 = 0.6787 | 1190.27 | 1295.7
323.15 K, x1 = 0.7746 | 1217.39 | 1316.4
323.15 K, x1 = 0.8707 | 1241.1 | 1332.1
323.15 K, x1 = 0.9354 | 1255.1 | 1347.8
323.15 K, x1 = 1 | 1267.63 | 1362.5

CCCCCCn1cc[n+](C)c1.F[P-](F)(F)(F)(F)F [1-hexyl-3-methylimidazolium hexafluorophosphate] + CCOC(C)=O
Conditions | mass density [kg/m3] | speed of sound [m/s]
293.15 K, x1 = 0.09053 | 985.573 | 1203.8
293.15 K, x1 = 0.1751 | 1047.27 | 1245.1
293.15 K, x1 = 0.2748 | 1103.27 | 1278.6
293.15 K, x1 = 0.3638 | 1142.32 | 1312.1
293.15 K, x1 = 0.4747 | 1181.82 | 1341.9
293.15 K, x1 = 0.5959 | 1215.82 | 1369.5
293.15 K, x1 = 0.6988 | 1239.42 | 1390.2
293.15 K, x1 = 0.7782 | 1254.92 | 1404.4
293.15 K, x1 = 0.8784 | 1272.57 | 1417.2
293.15 K, x1 = 0.9562 | 1285.17 | 1428.1
293.15 K, x1 = 1 | 1291.38 | 1436.9
298.15 K, x1 = 0.09053 | 980.708 | 1182.9
298.15 K, x1 = 0.1751 | 1042.71 | 1226
298.15 K, x1 = 0.2748 | 1098.95 | 1260.9
298.15 K, x1 = 0.3638 | 1138.08 | 1295.7
298.15 K, x1 = 0.4747 | 1177.55 | 1326.9
298.15 K, x1 = 0.5959 | 1211.68 | 1355.6
298.15 K, x1 = 0.6988 | 1235.47 | 1376.8
298.15 K, x1 = 0.7782 | 1251.3 | 1388.5
298.15 K, x1 = 0.8784 | 1269.1 | 1402.5
298.15 K, x1 = 0.9562 | 1281.27 | 1414.1
298.15 K, x1 = 1 | 1287.34 | 1423.5
303.15 K, x1 = 0.09053 | 975.56 | 1162.1
303.15 K, x1 = 0.1751 | 1037.99 | 1207
303.15 K, x1 = 0.2748 | 1094.55 | 1243.1
303.15 K, x1 = 0.3638 | 1133.41 | 1279.1
303.15 K, x1 = 0.4747 | 1173.05 | 1312.1
303.15 K, x1 = 0.5959 | 1207.51 | 1341.7
303.15 K, x1 = 0.6988 | 1231.55 | 1363.6
303.15 K, x1 = 0.7782 | 1247.62 | 1375.4
303.15 K, x1 = 0.8784 | 1265.46 | 1388.1
303.15 K, x1 = 0.9562 | 1277.49 | 1402.6
303.15 K, x1 = 1 | 1283.29 | 1410.6
308.15 K, x1 = 0.09053 | 970.46 | 1141.5
308.15 K, x1 = 0.1751 | 1033.19 | 1188.2
308.15 K, x1 = 0.2748 | 1089.85 | 1225.7
308.15 K, x1 = 0.3638 | 1128.89 | 1261.3
308.15 K, x1 = 0.4747 | 1168.92 | 1297.4
308.15 K, x1 = 0.5959 | 1203.51 | 1328
308.15 K, x1 = 0.6988 | 1227.75 | 1350.6
308.15 K, x1 = 0.7782 | 1243.95 | 1365
308.15 K, x1 = 0.8784 | 1261.82 | 1375.1
308.15 K, x1 = 0.9562 | 1273.69 | 1391
308.15 K, x1 = 1 | 1279.4 | 1398.2
313.15 K, x1 = 0.09053 | 964.46 | 1120.9
313.15 K, x1 = 0.1751 | 1027.59 | 1169.4
313.15 K, x1 = 0.2748 | 1084.79 | 1208.5
313.15 K, x1 = 0.3638 | 1124.28 | 1246.5
313.15 K, x1 = 0.4747 | 1164.75 | 1282.8
313.15 K, x1 = 0.5959 | 1199.65 | 1313.8
313.15 K, x1 = 0.6988 | 1224.15 | 1337.7
313.15 K, x1 = 0.7782 | 1240.32 | 1349.8
313.15 K, x1 = 0.8784 | 1258.46 | 1359.6
313.15 K, x1 = 0.9562 | 1270.35 | 1378
313.15 K, x1 = 1 | 1275.48 | 1386
318.15 K, x1 = 0.09053 | 960.532 | 1100.5
318.15 K, x1 = 0.1751 | 1023.8 | 1150.8
318.15 K, x1 = 0.2748 | 1080.46 | 1191.3
318.15 K, x1 = 0.3638 | 1119.61 | 1231.9
318.15 K, x1 = 0.4747 | 1160.23 | 1268.4
318.15 K, x1 = 0.5959 | 1195.59 | 1300.3
318.15 K, x1 = 0.6988 | 1220.56 | 1324.8
318.15 K, x1 = 0.7782 | 1236.86 | 1337.1
318.15 K, x1 = 0.8784 | 1254.52 | 1348.4
318.15 K, x1 = 0.9562 | 1266.02 | 1366
318.15 K, x1 = 1 | 1271.56 | 1374.2
323.15 K, x1 = 0.09053 | 955.246 | 1080.2
323.15 K, x1 = 0.1751 | 1018.76 | 1132.3
323.15 K, x1 = 0.2748 | 1075.54 | 1174.3
323.15 K, x1 = 0.3638 | 1114.9 | 1216.3
323.15 K, x1 = 0.4747 | 1155.92 | 1254.2
323.15 K, x1 = 0.5959 | 1191.86 | 1287.2
323.15 K, x1 = 0.6988 | 1217.05 | 1311.7
323.15 K, x1 = 0.7782 | 1233.69 | 1324.4
323.15 K, x1 = 0.8784 | 1251.25 | 1335.4
323.15 K, x1 = 0.9562 | 1262.25 | 1355.1
323.15 K, x1 = 1 | 1267.63 | 1362.5
